In patent publication US6632621B1, “G protein-coupled receptor-like receptors and modulators thereof” (priority 1999, dated 2003):
pEC50: −log10 of the molar value. Like-named read-outs stand apart in the source and are kept apart here. Where no end group is shown, it is not given here.

Key:
human D2 receptor = human D2 receptor (Homo sapiens, UniProt P14416); details: 37° C. versus temperature-shift transfection protocol
Experimental: (§1) Aliquots of cell membranes prepared as described above and stored at −70° C. were thawed, homogenized, and diluted into buffer containing 20 mM HEPES, pH 7.4, 10 mM MgCl2, 1 mM EDTA, and 100 mM NaCl at a concentration of 10-50 μg/ml. Reaction mixtures were prepared in 96-well polypropylene plate, Nunc. Twenty microliters of a 10× putative modulator compound (including but not limited to potential peptide ligands) solution or a water control (20 μl), 18.2 µM GDP (0.11 ml, 10 μM final concentration), and a membrane preparation were mixed and placed on ice. The modulator/ligand-GDP-membrane mixtures were incubated for 20 minutes at room temperature on a shaking platform and then placed on ice.

CEGPCR16 receptor [1] = molecular target: T1, CEGPCR16 receptor (Caenorhabditis elegans, UniProt Q9XXU4); assay: [35S]GTPγS binding assay, CEGPCR16 expressed in CHO cells; type: biochemical, C. elegans; details: membranes from cells transfected and maintained at 37° C.
T1 sequence (Q9XXU4 1-365): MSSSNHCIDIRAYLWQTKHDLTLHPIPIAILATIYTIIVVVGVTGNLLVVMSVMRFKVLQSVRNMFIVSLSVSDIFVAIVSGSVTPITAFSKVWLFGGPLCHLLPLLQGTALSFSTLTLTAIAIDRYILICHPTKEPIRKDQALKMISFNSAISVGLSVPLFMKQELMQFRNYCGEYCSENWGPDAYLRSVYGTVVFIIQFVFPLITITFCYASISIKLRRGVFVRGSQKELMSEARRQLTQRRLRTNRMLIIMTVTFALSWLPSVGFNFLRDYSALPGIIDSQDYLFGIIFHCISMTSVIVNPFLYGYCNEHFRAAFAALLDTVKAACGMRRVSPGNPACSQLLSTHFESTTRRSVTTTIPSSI

CEGPCR16 receptor [2] = molecular target: T1, CEGPCR16 receptor; assay: as above; type: biochemical, C. elegans
Experimental: (§2) Recombinant pCR3.1 clones encoding invertebrate GPCR-like receptors were transformed into wild-type CHO-K1 cells and functional expression was achieved using a temperature-shift incubation protocol. The CHO-K1 cells were cultured at 37° C. in a humidified atmosphere of 5% CO2 in air in DMEM medium supplemented with 10% heat-inactivated fetal bovine serum (i.e., FBS), 10 μg/ml gentamicin, and 0.1 mM nonessential amino acids to give complete DMEM medium. Additionally, for incubations at temperatures lower than 37° C., the medium was fortified with 10 mM HEPES (pH 7.4). Cells were transfected with recombinant pCR3.1 clones containing GPCR-like receptor DNAs, using LipofectAMINE PLUS™, essentially according to the manufacturer's instructions. […] In separate plastic tubes, PLUS (20 μl/plate; Life Technologies) was added to 0.75 ml/plate of recombinant plasmid DNA in OptiMEM (5 μg/plate; Gibco/BRL—Life Technologies), mixed and incubated at room temperature for 15 minutes. Separately, LipofectAMINE (30 μl/plate) was mixed with 0.75 ml OptiMEM and added to the pre-complexed DNA/PLUS mixture and incubated at room temperature for 15 minutes. The culture medium was then replaced with serum-free transfection medium (DMEM, 5 ml/plate). The DNA-PLUS-LipofectAMINE complex was then added to the plates (1.5 ml/plate) and mixed gently into the medium, followed by a 3 hour incubation at 37° C. in 5% CO2. At this time, the medium was supplemented with complete DMEM medium containing 20% FBS (6.5 ml/plate) and incubation was continued at 37° C. in 5% CO2. After a total of 24 hours at 37° C. in 5% CO2, the medium was replaced with complete DMEM medium fortified with 10 mM HEPES (10 ml/plate) and the cells were moved to an incubator maintained at 28-30° C. in a humidified atmosphere of 5% CO2 in air. The incubation continued for an additional 24 hours, typically at the lower temperature indicated above. A plasmid encoding Green Fluorescent Protein (i.e., GFP, 4 μg/plate) was used for transient GFP expression in CHO-K1 cells to estimate the transfection yields under the same conditions as used for GPCR-like receptor polynucleotides.
(§3) To assess expression, membranes were prepared from transfected CHO-K1 cells. Transfected cells were washed once with ice-cold Dulbecco's phosphate-buffered saline (i.e., PBS), 5 ml per 10 cm plate, and the cells were scraped into 5 ml of the same buffer. Cell suspensions from multiple plates were combined and centrifuged at 500×g for 10 minutes at 4° C. The cell pellet was reconstituted in ice-cold TEE (25 mM Tris, pH 7.4, 5 mM EGTA, 5 mM EDTA). Convenient aliquots were snap-frozen in liquid nitrogen and stored at −70° C. After thawing, the cells were homogenized and centrifuged at 500×g for 5 minutes at 4° C. to pellet nuclei and unbroken cells. Tile supernatant was centrifuged at 47,000×g for 30 minutes at 4° C. The membrane pellet was washed once with TEE, resuspended in 20 mM HEPES, pH 7.4, 100 mM NaCl, 10 mM MgCl2, 1 mM EDTA (assay buffer), distributed into aliquots of 0.5-1.0 ml, and frozen in liquid nitrogen. Membrane aliquots were stored at −70° C. Membrane protein concentration was determined using the BCA Protein Assay Reagent from Pierce (Rockford, Ill.), with bovine serum albumin (i.e., BSA) as a standard.
as §1

CEGPCR5 [3] = molecular target: T2, CEGPCR5 (Caenorhabditis elegans, UniProt Q18179); assay: [35S]GTPγS binding assay, CEGPCR5 expressed in CHO cells; type: biochemical, C. elegans; details: membranes from cells transfected and maintained at 37° C.
T2 sequence (Q18179 1-402): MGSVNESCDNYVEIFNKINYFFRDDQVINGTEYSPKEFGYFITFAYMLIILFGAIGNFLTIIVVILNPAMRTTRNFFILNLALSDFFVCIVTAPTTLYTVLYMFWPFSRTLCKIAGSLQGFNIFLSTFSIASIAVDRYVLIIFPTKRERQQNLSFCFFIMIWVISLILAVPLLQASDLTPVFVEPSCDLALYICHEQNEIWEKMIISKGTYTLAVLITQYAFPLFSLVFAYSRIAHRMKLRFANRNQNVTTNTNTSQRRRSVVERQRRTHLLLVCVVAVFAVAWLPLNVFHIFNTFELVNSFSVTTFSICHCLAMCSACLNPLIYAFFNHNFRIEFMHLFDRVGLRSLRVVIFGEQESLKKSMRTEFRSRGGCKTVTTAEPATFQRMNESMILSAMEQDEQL

CEGPCR5 [4] = molecular target: T2, CEGPCR5; assay: as above; type: biochemical, C. elegans
CEGPCR12h receptor = molecular target: T3, CEGPCR12h receptor (Caenorhabditis elegans, UniProt Q20275); assay: [35S]GTPγS binding assay, CEGPCR12h expressed in CHO cells; type: biochemical, C. elegans; details: Table 11; peptides tested at 5 μM
T3 sequence (Q20275 1-402): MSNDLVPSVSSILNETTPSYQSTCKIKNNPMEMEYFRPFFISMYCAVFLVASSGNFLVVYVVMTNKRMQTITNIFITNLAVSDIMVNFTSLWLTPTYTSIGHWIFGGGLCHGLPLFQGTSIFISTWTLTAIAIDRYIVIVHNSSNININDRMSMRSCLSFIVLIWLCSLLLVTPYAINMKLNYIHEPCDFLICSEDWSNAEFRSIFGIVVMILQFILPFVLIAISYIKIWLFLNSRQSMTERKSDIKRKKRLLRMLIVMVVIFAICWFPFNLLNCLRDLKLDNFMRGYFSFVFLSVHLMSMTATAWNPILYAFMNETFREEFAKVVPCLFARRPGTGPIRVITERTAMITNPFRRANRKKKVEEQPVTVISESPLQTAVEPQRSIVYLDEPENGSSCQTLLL
Experimental: as §2, §3, §1

CEGPCR7 receptor = molecular target: T4, CEGPCR7 receptor (Caenorhabditis elegans, UniProt Q18534); assay: [35S]GTPγS binding assay, membranes of CHO cells transfected with CEGPCR7; type: biochemical, C. elegans
T4 construct: Each of the 22 putative GPCR-like receptor clones appeared to contain a full-length coding region; expressed in transfected cells; host or cells: CHO-K1, transient, pCR3.1 clone, 37 to 28 C temperature shift
T4 sequence (Q18534 1-457): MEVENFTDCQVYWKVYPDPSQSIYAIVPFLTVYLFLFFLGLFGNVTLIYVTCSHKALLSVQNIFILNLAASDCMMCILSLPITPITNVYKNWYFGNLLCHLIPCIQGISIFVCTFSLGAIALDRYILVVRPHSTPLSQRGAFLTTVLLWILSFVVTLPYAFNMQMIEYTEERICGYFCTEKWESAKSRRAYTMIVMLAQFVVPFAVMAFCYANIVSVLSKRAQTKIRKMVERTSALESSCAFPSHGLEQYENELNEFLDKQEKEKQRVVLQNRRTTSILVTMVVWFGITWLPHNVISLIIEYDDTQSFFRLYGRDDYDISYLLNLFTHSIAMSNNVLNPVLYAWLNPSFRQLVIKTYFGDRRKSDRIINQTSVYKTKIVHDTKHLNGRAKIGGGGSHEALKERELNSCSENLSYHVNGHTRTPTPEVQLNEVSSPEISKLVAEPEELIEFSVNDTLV
Experimental: as §2, §3
Aliquots of cell membranes prepared as described above and stored at −70° C. were thawed, homogenized, and diluted into buffer containing 20 mM HEPES, pH 7.4, 10 mM MgCl2, 1 mM EDTA, and 100 mM NaCl at a concentration of 10-50 μg/ml.

[5] = temperature shift to 28° C. 24 hours after transfection

human D2 receptor, sequence (P14416 whole entry): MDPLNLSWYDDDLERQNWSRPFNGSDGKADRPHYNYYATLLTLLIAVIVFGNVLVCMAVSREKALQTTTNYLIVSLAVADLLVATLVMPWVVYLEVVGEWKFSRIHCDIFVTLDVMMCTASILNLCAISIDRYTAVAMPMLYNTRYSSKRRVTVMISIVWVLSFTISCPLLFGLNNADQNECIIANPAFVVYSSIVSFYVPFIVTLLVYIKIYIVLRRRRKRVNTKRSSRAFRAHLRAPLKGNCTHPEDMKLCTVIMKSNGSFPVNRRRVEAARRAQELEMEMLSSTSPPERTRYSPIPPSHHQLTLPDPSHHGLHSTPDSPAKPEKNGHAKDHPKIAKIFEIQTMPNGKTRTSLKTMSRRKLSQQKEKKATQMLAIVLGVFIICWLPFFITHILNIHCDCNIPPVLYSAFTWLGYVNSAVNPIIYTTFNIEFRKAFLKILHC

NCCc1ccc(O)c(O)c1 [dopamine]
responses of the receptor to its ligand (human D2 receptor): the same regardless of the transfection protocol used

ASEDALFGTMRF-NH2 [ASEDALFGTMRF-NH2]
receptor activation by matched ligand (CEGPCR16 receptor [1]): not detectably activated
pEC50 (CEGPCR16 receptor [2]; Table 10, one range for the group of peptides, read-out: EC50 range): 6.52 to 7.22
ligand-induced [35S]GTPγS binding (CEGPCR16 receptor [2]; [5]): significant stimulation

H-GLGPRPLRF-NH2 [GLGPRPLRF-NH2]
receptor activation by matched ligand (CEGPCR5 [3]): not detectably activated
pEC50 (CEGPCR5 [4]): 8.00 to 9.00
EC50 (CEGPCR5 [4]; in words): low nanomolar range
ligand-induced [35S]GTPγS binding (CEGPCR5 [4]; [5]): significant stimulation
activity at single concentration (CEGPCR12h receptor): active at
pEC50 (CEGPCR7 receptor; EC50, single values): 6.68
pEC50 (CEGPCR7 receptor; EC50 range, Table 7, one range for the group of peptides): 6.60 to 6.70
ligand-induced [35S]GTPγS binding, fold elevation in activity (CEGPCR7 receptor; cooling (28° C.) protocol): 2.6 fold
